{"source": "patent US20040161426A1", "about": "“Use of IL-6 antagonists in combination with steroids to enhance apoptosis” (priority 2003, published 2004)", "key": {"RPMI 8226 cells": {"test_system": "RPMI 8226 cells", "assay": "Dexamethasone-induced apoptosis, Tunel assay with flow cytometry", "format": "cell-based, human", "conditions": "for % Apoptosis Mean ± SEM: 48 h; for level of apoptosis (cells undergoing apoptosis): representative experiment", "protocol": "The cell line RPMI 8226, a human multiple myeloma cell line, was purchased from ATCC (Rockville, Md.). Cells were grown and maintained according to ATCC instructions in complete RPMI medium containing 10% FBS, 1% NEAA, 1% L-glutamine and 1% sodium pyruvate.\nChimeric CLB8 (cCLB8) (Centocor, Malvern, Pa.) was used at three different concentrations in the assay. Another a chimeric human-mouse IgG, c171A, also developed at Centocor was used as a negative control antibody.\n[…] After the incubation, cells were harvested and the Tunel assay (Tdt-mediated dUTP-FITC nick end labeling) as disclosed in Gavrieli et al., “Identification of Programmed Cell Death in situ Via Specific Labelling of Nuclear DNA Fragmentation”, […] 119:493-501, 1992 was used to measure apoptosis with minor modifications. Briefly, after the 48-hour incubation described above, approximately 10^6 cells were harvested, washed twice, and fixed with 1% paraformaldehyde for 15 minutes. After washing, the cells were permeabilized with 0.1% Triton (Sigma, St. Louis, Mo.) for 5 minutes and washed twice. The labeling reaction was performed in a heating block at 37° C. for 1 hour with 0.3 nM FITC-12-dUTP (Boehringer Mannheim, Indianapolis, Ind.), 2.5 mM CoCI2, 12.5 U Tdt, and 5 microL of 5×Tdt Buffer (Boehringer Mannheim) in a total volume of 50 microL. Cells were analyzed by flow cytometry.\nAfter completing the Tunel assay, cells were washed twice and analyzed on a FACS Calibur flow cytometer (Becton Dickinson Immunocytometry Systems, San Jose, Calif.) equipped with a 15-mW air-cooled 488-nm argon laser. Gating to exclude debris was based upon diminished forward scatter (FSC) and side scatter (SSC). A minimum of 10,000 events was collected per sample and all analyses were performed with CELLQuest software (Becton Dickinson Immunocytometry Systems, San Jose, Calif.)."}, "IL-6": {"biological_target": "T1, IL-6 (Homo sapiens, UniProt P05231)", "T1 construct": "host or cells: patients (endogenous IL-6)", "T1 sequence (P05231 30-212)": "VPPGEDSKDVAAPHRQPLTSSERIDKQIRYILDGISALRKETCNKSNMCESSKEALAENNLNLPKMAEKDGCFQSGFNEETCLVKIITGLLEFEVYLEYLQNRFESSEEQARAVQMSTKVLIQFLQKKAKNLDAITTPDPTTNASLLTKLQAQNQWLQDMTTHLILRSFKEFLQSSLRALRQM", "conditions": "multiple myeloma patients after cCLB8 administration; cited from earlier work"}}}
{"molecule": "IL-6: 22-27 kDa secreted glycoprotein cytokine interleukin 6 [reference compound]", "values": [{"measurement": "IL-6 concentration inhibiting dexamethasone-induced apoptosis", "setting": "RPMI 8226 cells; RPMI 8226 cells, dexamethasone 1 microM", "result": "higher than 100 ng/mL"}]}
{"molecule": "cCLB8: chimerized form of the murine anti-IL-6 monoclonal antibody CLB-6/8 (Centocor)", "values": [{"measurement": "% Apoptosis Mean ± SEM", "setting": "RPMI 8226 cells; RPMI 8226 cells, DEX + IL-6 + CNTO 328 100 ng", "result": "% 45 ± 11"}, {"measurement": "% Apoptosis Mean ± SEM", "setting": "RPMI 8226 cells; RPMI 8226 cells, DEX + IL-6 + CNTO 328 1 ug", "result": "% 54 ± 2.5"}, {"measurement": "neutralization of the inhibitory effect of IL-6 on dexamethasone-induced apoptosis", "setting": "RPMI 8226 cells; RPMI 8226 cells, P<0.02", "result": "neutralized the inhibitory effect of IL-6 on dexamethasone-induced apoptosis in a dose dependent manner"}, {"measurement": "promotion of cellular apoptosis, combination versus single agents", "setting": "RPMI 8226 cells; combination of dexamethasone and cCLB8", "result": "superior to treatment with either agent alone"}, {"measurement": "level of apoptosis (cells undergoing apoptosis)", "setting": "RPMI 8226 cells; FIG. 1C, dexamethasone in the presence of both IL-6 and cCLB8", "result": 60, "unit": "%"}, {"measurement": "circulating levels of sIL6R and sgp130", "setting": "IL-6", "result": "remained unchanged"}, {"measurement": "serum IL-6 activity", "setting": "IL-6", "result": "total blockage of serum IL-6 activity"}]}
{"molecule": "C[C@@H]1C[C@H]2[C@@H]3CCC4=CC(=O)C=C[C@]4(C)[C@@]3(F)[C@@H](O)C[C@]2(C)[C@@]1(O)C(=O)CO", "note": "[Dexamethasone, reference compound]", "values": [{"measurement": "% Apoptosis Mean ± SEM", "setting": "RPMI 8226 cells; RPMI 8226 cells, DEX 10-6 alone", "result": "% 46 ± 4"}, {"measurement": "% Apoptosis Mean ± SEM", "setting": "RPMI 8226 cells; RPMI 8226 cells, DEX + IL-6 100 pg", "result": "% 27 ± 9"}, {"measurement": "level of apoptosis (cells undergoing apoptosis)", "setting": "RPMI 8226 cells; FIG. 1A, dexamethasone 1 microM, 48 hrs", "result": 45, "unit": "%"}, {"measurement": "level of apoptosis (cells undergoing apoptosis)", "setting": "RPMI 8226 cells; FIG. 1B, dexamethasone in the presence of IL-6", "result": 20, "unit": "%"}]}
